The record followed here is patent US7838122B2, “Hydrazide compounds with angiogenic activity” (Rutgers, the State University of New Jersey, priority 2003, dated 2010).

Data set [1] relates to Human aortic endothelial cells (HAEC). Kind of data set: In vitro endothelial cell migration assay (transwell microchemotaxis chamber). It is filed as cell-based. On the procedure:
Endothelial cells were known to respond to angiogenic factors which cause motility and mitosis, and ultimately the release of growth factors from the cells. Human aortic endothelial cells (HAEC) were cultured at passage 8 and maintained and fed with MCDB 131 media with EGM-2 (Clonetics) until the day of the experiment. Cultures were maintained at 37° C., 5% CO2 and 100% humidity. Comparisons were made of PEG-di-DT Hydrazide activity versus basic FGF-β. The PEG-di-DT hydrazide and basic FGF-β were dissolved in MCDB 131 media. Basic FGF-β was used as a positive control due to its well documented angiogenic activity and extensive testing. Dose-response curves were obtained for PEG-di-DT Hydrazide and basic FGF-β. PEG-dihydrazide, DT monomer, and PEG (Mw=2000), were prepared in MCDB 131 media according to Table 2, and were also tested. Migration assays were performed in a 24-well microchemotaxis chamber (Co-Star) containing transwells of untreated polycarbonate membranes with 8 μm pores. Both the transwells and well bottoms were coated overnight with a 10 μg/mL fibronectin solution (Calbiochem). HAE cells were harvested and resuspended at a concentration of 4.5×10^5 cells/0.1 mL in the corresponding medium. Media was also tested to determine baseline chemotaxis. The bottom wells were filled with 500 μL of test solution, and the transwells were seeded with […] and incubated for 6 hours at 37° C. The cells that migrated through the membrane were quantitated by counting the whole area of the filter using a grid and a (Olympus) microscope at 40× or 20× magnification.

The nature of data set [2]: Scaffold degradation study in SBF at 37° C. (HPLC, TGA, gravimetry).
Experimental: To determine degradation products of porous scaffolds (compositions used: 100/80, 50/40 and 25/20), hydrogel disks of various compositions samples were incubated at 37° C. in SBF at a constant weight to volume ratio of 5 mg/mL, maintaining a constant surface area to volume ratio. Over a one-week period, aliquots were removed and analyzed by HPLC. Buffer solutions were changed every two weeks to maintain sink conditions. Samples were analyzed over a 6-month period for degradation products in the buffer by HPLC, for water uptake by TGA, and mass loss by gravimetry. Aliquots of the degradation media were analyzed by HPLC. The HPLC system consisted of a reversed-phase (C18) column (Perkin-Elmer, Norwalk, Calif.), an LC pump (Model 410; Perkin-Elmer), a UV array detector at 220 nm (Model 235 Perkin-Elmer), an autoinjector (Model ISS-100; Perkin-Elmer), and a computerized data station (Turbochrom; Perking Elmer). A gradient system of water:acetonitrile was used as an eluent to capture each degradation product. Degradation was monitored using DT and DTE standards, and quantitation of degradation products was determined from the area under the signal peaks in the chromatogram after correlating to the standards. […] Mass loss was calculated as the % ratio of weight lost over initial weight. […]
Data set [3] deals with Rat lung fibroblasts (RLF-6). As to the kind of experiment: Cytotoxicity, CellTiter96 Aqueous One Solution Cell Proliferation Assay. As to conditions: RFL-6 cells; serial dilutions 200 to 7.8 mg/mL in SBF; read at 490 nm.
Experimental: In vitro biocompatibility studies of PEG-di-DT hydrazide were assessed by analyzing cytotoxicity. […] The CellTiter96® Aqueous One Solution Cell Proliferation Assay (Promega, Madison, Wis.) was used to determine cytotoxicity. Plates were read on a PowerWavex absorbance plate reader, (Bio-Tek Instrumentation, Inc., Highland Park, Vt.).
Cell toxicity studies were carried out in 96-well plates made of tissue-cultured polystyrene, and ˜3×10^3 cells were seeded in each well. Serial dilutions of PEG-di-DT hydrazide were prepared in concentrations ranging from 200 mg/mL to 7.8 mg/mL using SBF as the diluent. Volume of media was kept constant to prevent nutritional advantages. Filter-sterilized dilutions (n=6) were plated in a 96 well plate and controls of media+cells+diluent (to account for affects of the diluent), and media+cells (optimal cell culture conditions) were employed. […] The plates were incubated for 2 hours and read at 490 nm on an absorbance plate reader. Data were analyzed using a two-tailed Student t-test, establishing statistical significance at p<0.05 when compared to cells grown in the cell+media+diluent control.

As for `O=C(CCc1ccc(O)cc1)N[C@@H](Cc1ccc(O)cc1)C(=O)O` [DT, desaminotyrosyl-tyrosine free carboxylic acid], the cell migration entry in data set [1] (HAEC, 6 hours at 37° C.) is recorded as “Neither PEG 2000 nor DT solutions caused cell migration to occur”. For the same compound, the “presence of degradation product during degradation” value in data set [2] (HPLC, 6-month study) is given as “continued to remain during the course of degradation”. Take `CCOC(=O)[C@H](Cc1ccc(O)cc1)NC(=O)CCc1ccc(O)cc1` [DTE, desaminotyrosyl-tyrosine ethyl ester]: the “time by which degradation product was undetectable by HPLC” value in data set [2] (degradation media of hydrogels, SBF, 37° C.) is not above 12 weeks. For `CC(O)C(=O)[O-].[Na+]` (stereo not shown) [Sodium Lactate, sodium lactate], the “Results of the Cytotoxicity Assay” value in data set [3] turned out to be 3 mg/mL.

With “FGF-β: growth factor, known angiogenic substance used as positive control”, the “dose dependence of cell migration” value in data set [1] (FIG. 7 / FIG. 8) is on record as “dose dependent manner”. The “minimum effective concentration (cell migration)” value in data set [1] (HAEC, 6 hours, FIG. 6) turned out to be 0.01 µg/mL. The “cell migration response versus media alone” value in data set [1] (all concentrations tested) is “higher cell migration response than the media alone”.
